Assay results reported in patent publication US9416154B2, “5′-substituted nucleoside derivatives and methods of use thereof for the treatment of viral diseases” (priority 2011, dated 2016).
pEC50: −log10 of the molar value. Where two headings read alike, the source gives them in different places.

Assays:
HCV replicon (1b) = experiment: Cell-based HCV replicon assay
Protocol: To measure cell-based anti-HCV activity of selected compounds of the present invention, replicon cells were seeded at 5000 cells/well in 96-well collagen I-coated Nunc plates in the presence of the test compound. Various concentrations of test compound, typically in 10 serial 2-fold dilutions, were added to the assay mixture, with the starting concentration ranging from 250 μM to 1 μM. The final concentration of dimethylsulfoxide was 0.5%, fetal bovine serum was 5%, in the assay media. Cells were harvested on day 3 by the addition of 1× cell lysis buffer (Ambion cat #8721). The replicon RNA level was measured using real time PCR (Taqman assay). The amplicon was located in 5B. The PCR primers were: 5B.2F, ATGGACAGGCGCCCTGA (SEQ ID. NO. 1); 5B.2R, […] (SEQ ID. NO. 2); the probe sequence was FAM-labeled CACGCCATGCGCTGCGG (SEQ ID. NO. 3). GAPDH RNA was used as endogenous control and was amplified in the same reaction as NS5B (multiplex PCR) using primers and VIC-labeled probe recommended by the manufacturer (PE Applied Biosystem). The real-time RT-PCR reactions were run on ABI PRISM 7900HT Sequence Detection System using the following program: 48° C. for 30 minutes, 95° C. for 10 minutes, 40 cycles of 95° C. for 15 sec, 60° C. for 1 minute. The ΔCT values (CT5B-CTGAPDH) were plotted against the concentration of test compound and fitted to the sigmoid dose-response model using XLfit4 (MDL). EC50 was defined as the concentration of inhibitor necessary to achieve ΔCT=1 over the projected baseline; EC90 the concentration necessary to achieve ΔCT=3.2 over the baseline. Alternatively, to quantitate the absolute amount of replicon RNA, a standard curve was established by including serially diluted T7 transcripts of replicon RNA in the Taqman assay. All Taqman reagents were from PE Applied Biosystems. Such an assay procedure was described in detail in e.g. Malcolm et al., Antimicrobial Agents and Chemotherapy 50: 1013-1020 (2006).

[1] = Cytotoxicity (MTS assay or GAPDH RNA readout); assay type: cell-based; settings: human, replicon-containing Huh 7 cells, 3-day incubation, MTS or GAPDH RNA readout; read-out: 1b CC50
Protocol: (§1) The effect of the nucleoside derivatives on the proliferation and metabolism of Huh 7 hepatoma cells containing the subgenomic HCV replicon was measured using the MTS assay. Briefly, cells were seeded and dosed with compounds exactly as described in Example 13 above, for replicon EC50 determination. After a 3-day compound incubation period, the MTS assay was performed in accordance with the manufacturer's protocol for the CellTiter 96 Aqueous One Solution Cell Proliferation Assay (Promega, Catalog #G358). Alternatively, after a 3-day compound incubation, the amount of glyceraldehyde-3-phosphate dehydrogenase (GAPDH) RNA in replicon-containing Huh 7 cells was determined using qRT-PCR. CC50 values were derived from 10 serial 2-fold dilutions of the inhibitor in duplicate that yielded 50% inhibition of the MTS or GAPDH RNA readout by comparison with cells treated with vehicle control.

[2] = tested on: Huh 7 hepatoma cells containing the subgenomic HCV replicon; experiment: Cytotoxicity (MTS assay or GAPDH RNA readout); assay type: cell-based
Protocol: as §1

[3] = Hepatitis C virus, 72 h, read-out: 1b EC50, replicon cells, 3-day incubation, replicon RNA by real time PCR (Taqman)
[4] = replicon cells, 3-day incubation, replicon RNA by real time PCR (Taqman), read-out: 1b EC50
[5] = replicon-containing Huh 7 cells, 3-day incubation, MTS or GAPDH RNA readout, read-out: 1b CC50
[6] = Hepatitis C virus, 72 h, replicon cells, 3-day incubation, replicon RNA by real time PCR (Taqman), read-out: 1b EC50

Row | SMILES | pEC50 (HCV replicon (1b); [3]) | CC50 at 3 day [1] [µM] | other results
1 | CC(C)OC(=O)[C@H](C)NP(=O)(Oc1ccccc1)OC(C)[C@H]1O[C@@H](n2ccc3c(N)ncnc32)[C@](C)(F)[C@@H]1O (stereo partly shown) [Compound 17] | < 4.00 | > 100 | 
2 | CC(O)[C@H]1O[C@@H](n2cc(I)c3c(N)ncnc32)[C@](C)(F)[C@@H]1O (stereo partly shown) [Compound 13] |  |  | pEC50 (HCV replicon (1b); [4]): 4.24; CC50 [2]: 30 µM
3 | CCCCOC(=O)[C@H](C)NP(=O)(Oc1cccc2ccccc12)O[C@H](CC)[C@H]1O[C@@H](n2ccc3c(N)ncnc32)[C@](C)(O)[C@@H]1O (stereo partly shown) [Compound 8] | 4.89 | 30 | 
4 | C[C@H](O)C1O[C@@H](n2ccc3c(N)ncnc32)[C@](C)(O)[C@@H]1O (stereo partly shown) [Compound 28] |  |  | pEC50 (HCV replicon (1b); [4]): < 4.00; CC50 [2]: > 100 µM
5 | CC(O)C1O[C@@H](n2cc(F)c3c(N)ncnc32)[C@](C)(F)[C@@H]1O (stereo partly shown) [Compound 24] |  |  | pEC50 (HCV replicon (1b); [4]): < 4.00; CC50 [2, 5]: > 100 µM
6 | COC(=O)[C@H](C)NP(=O)(Oc1ccccc1)OC(C)[C@H]1O[C@@H](n2ccc3c(N)ncnc32)[C@](C)(O)[C@@H]1O (stereo partly shown) [Compound 40] | 4.68 | > 100 | 
7 | CC(O)[C@H]1O[C@@H](n2cc(-c3cc[nH]n3)c3c(N)ncnc32)[C@](C)(F)[C@@H]1O (stereo partly shown) [Compound 33] |  | > 100 | pEC50 (HCV replicon (1b); [6]): < 4.00
8 | C[C@H](O)[C@H]1O[C@@H](n2cc(F)c3c(N)ncnc32)[C@](C)(O)[C@@H]1O [Compound 9] |  |  | pEC50 (HCV replicon (1b); [4]): < 4.00; CC50 [2]: > 100 µM
9 | C[C@@H](O)C1O[C@@H](n2ccc3c(N)ncnc32)[C@](C)(O)[C@@H]1O (stereo partly shown) [Compound 27] |  |  | pEC50 (HCV replicon (1b); [4]): < 4.00; CC50 [2, 5]: > 100 µM
10 | CCOC(=O)[C@H](C)NP(=O)(Oc1ccccc1)O[C@@H](C)[C@H]1O[C@@H](n2ccc3c(N)ncnc32)[C@](C)(O)[C@@H]1O (stereo partly shown) [Compound 39] | < 4.00 | > 100 | 
11 | CCOC(=O)[C@H](C)NP(=O)(Oc1ccccc1)OC(C)[C@H]1O[C@@H](n2ccc3c(N)ncnc32)[C@](C)(F)[C@@H]1O (stereo partly shown) [Compound 16] |  |  | pEC50 (HCV replicon (1b); [4]): < 4.00; CC50 [2]: > 100 µM
12 | C[C@@H](O)C1O[C@@H](n2cc(F)c3c(N)ncnc32)[C@](C)(F)[C@@H]1O (stereo partly shown) [Compound 26] |  |  | pEC50 (HCV replicon (1b); [4]): < 4.00; CC50 [2]: > 100 µM
13 | CC[C@@H](O)[C@H]1O[C@@H](n2cc(F)c3c(N)ncnc32)[C@](C)(O)[C@@H]1O [Compound 5] |  | 24 | pEC50 (HCV replicon (1b); [6]): 4.64
14 | CCCCOC(=O)[C@H](C)NP(=O)(Oc1cccc2ccccc12)O[C@H](C)[C@H]1O[C@@H](n2cc(F)c3c(N)ncnc32)[C@](C)(O)[C@@H]1O (stereo partly shown) [Compound 4] | < 4.00 | 84 | 
15 | CCOC(=O)[C@H](C)NP(=O)(Oc1ccccc1Cl)OC(C)[C@H]1O[C@@H](n2ccc3c(N)ncnc32)[C@](C)(F)[C@@H]1O (stereo partly shown) [Compound 22] | < 4.00 | > 100 | 
16 | CC(C)(O)[C@H]1O[C@@H](n2ccc3c(N)ncnc32)[C@](C)(O)[C@@H]1O [Compound 31] |  |  | pEC50 (HCV replicon (1b); [4]): < 4.00; CC50 [2]: > 100 µM
17 | CC(C)OC(=O)[C@H](C)NP(=O)(Oc1cccc2ccccc12)OC(C)[C@H]1O[C@@H](n2ccc3c(N)ncnc32)[C@](C)(F)[C@@H]1O (stereo partly shown) [Compound 19] | < 4.70 | > 20 | 
18 | CC(C)OC(=O)[C@H](C)NP(=O)(Oc1ccc(Cl)cc1)OC(C)[C@H]1O[C@@H](n2ccc3c(N)ncnc32)[C@](C)(F)[C@@H]1O (stereo partly shown) [Compound 21] | < 4.00 | > 100 | 
19 | CCOC(=O)[C@H](C)NP(=O)(Oc1ccc(Cl)cc1)OC(C)[C@H]1O[C@@H](n2ccc3c(N)ncnc32)[C@](C)(F)[C@@H]1O (stereo partly shown) [Compound 20] | < 4.00 | > 100 | 

Row | SMILES | pEC50 (HCV replicon (1b); [3]) | CC50 at 3 day [1] [µM] | other results
20 | CC(C)OC(=O)[C@H](C)NP(=O)(Oc1cccc2ccccc12)OC(C)(C)[C@H]1O[C@@H](n2ccc3c(N)ncnc32)[C@](C)(F)[C@@H]1O (stereo partly shown) [Compound 32] | < 4.70 | > 20 | 
21 | CCOC(=O)[C@H](C)NP(=O)(Oc1cccc2ccccc12)OC(C)[C@H]1O[C@@H](n2ccc3c(N)ncnc32)[C@](C)(F)[C@@H]1O (stereo partly shown) [Compound 18] | < 4.00 | > 100 | 
22 | CC[C@@H](O)[C@H]1O[C@@H](n2ccc3c(N)ncnc32)[C@](C)(O)[C@@H]1O [Compound 7] |  | > 100 | pEC50 (HCV replicon (1b); [6]): < 4.00
23 | COC(=O)[C@H](C)NP(=O)(Oc1ccccc1)O[C@H](C)[C@H]1O[C@@H](n2ccc3c(N)ncnc32)[C@](C)(O)[C@@H]1O (stereo partly shown) [Compound 34] | < 4.00 | > 100 | 
24 | CCOC(=O)[C@H](C)NP(=O)(Oc1ccccc1)O[C@H](C)[C@H]1O[C@@H](n2ccc3c(N)ncnc32)[C@](C)(O)[C@@H]1O (stereo partly shown) [Compound 38] | < 4.00 | > 100 | 
25 | CC[C@@H](OP(=O)(N[C@@H](C)C(=O)OC)Oc1ccccc1)[C@H]1O[C@@H](n2cc(F)c3c(N)ncnc32)[C@](C)(O)[C@@H]1O (stereo partly shown) [Compound 10] | 4.82 | 20 | 
26 | C[C@H](O)C1O[C@@H](n2cc(F)c3c(N)ncnc32)[C@](C)(F)[C@@H]1O (stereo partly shown) [Compound 25] |  |  | pEC50 (HCV replicon (1b); [4]): < 4.00; CC50 [2, 5]: > 100 µM
27 | CCCCOC(=O)[C@H](C)NP(=O)(Oc1cccc2ccccc12)O[C@H](C)[C@H]1O[C@@H](n2ccc3c(N)ncnc32)[C@](C)(O)[C@@H]1O (stereo partly shown) [Compound 2] |  |  | pEC50 (HCV replicon (1b); [4]): 4.48; CC50 [2, 5]: 44 µM
28 | COC(=O)[C@H](C)NP(=O)(Oc1ccccc1)O[C@@H](C)[C@H]1O[C@@H](n2ccc3c(N)ncnc32)[C@](C)(O)[C@@H]1O (stereo partly shown) [Compound 35] | < 4.00 | > 100 | 
29 | CC(OP(=O)(N[C@@H](C)C(=O)OCC(C)(C)C)Oc1ccccc1)[C@H]1O[C@@H](n2ccc3c(N)ncnc32)[C@](C)(O)[C@@H]1O (stereo partly shown) [Compound 41] | 4.74 | > 100 | 
30 | CC(C)OC(=O)[C@H](C)NP(=O)(Oc1ccccc1Cl)OC(C)[C@H]1O[C@@H](n2ccc3c(N)ncnc32)[C@](C)(F)[C@@H]1O (stereo partly shown) [Compound 23] | < 4.00 | > 100 | 
31 | CCCCOC(=O)[C@H](C)NP(=O)(Oc1cccc2ccccc12)OC(C)[C@H]1O[C@@H](n2ccc3c(N)ncnc32)[C@](C)(O)[C@@H]1O (stereo partly shown) [Compound 44] |  | 51 | pEC50 (HCV replicon (1b); read-out: 1b EC50, replicon cells, 3-day incubation, replicon RNA by real time PCR (Taqman)): 5.70
32 | CC(C)OC(=O)[C@H](C)NP(=O)(Oc1ccccc1)OC(C)[C@H]1O[C@@H](n2ccc3c(N)ncnc32)[C@](C)(O)[C@@H]1O (stereo partly shown) [Compound 43] | 4.85 | 98 | 
33 | COC(=O)[C@H](C)NP(=O)(Oc1ccccc1)O[C@H](C)[C@H]1O[C@@H](n2cc(F)c3c(N)ncnc32)[C@](C)(O)[C@@H]1O (stereo partly shown) [Compound 11] | 4.43 | > 100 | 
34 | CC(O)[C@H]1O[C@@H](n2ccc3c(N)ncnc32)[C@](C)(F)[C@@H]1O (stereo partly shown) [Compound 14] |  | > 100 | pEC50 (HCV replicon (1b); [6]): < 4.00
35 | COC(=O)[C@H](C)NP(=O)(Oc1ccccc1)O[C@@H](C)[C@H]1O[C@@H](n2cc(F)c3c(N)ncnc32)[C@](C)(O)[C@@H]1O (stereo partly shown) [Compound 12] | 4.41 | > 100 | 
36 | C[C@@H](O)[C@H]1O[C@@H](n2cc(F)c3c(N)ncnc32)[C@](C)(O)[C@@H]1O [Compound 3] |  | > 100 | pEC50 (HCV replicon (1b); [6]): < 4.00
37 | CCCCOC(=O)[C@H](C)NP(=O)(Oc1cccc2ccccc12)O[C@H](CC)[C@H]1O[C@@H](n2cc(F)c3c(N)ncnc32)[C@](C)(O)[C@@H]1O (stereo partly shown) [Compound 6] | 5.03 | 5.7 | 
38 | COC(=O)[C@H](C)NP(=O)(Oc1cccc2ccccc12)OC(C)[C@H]1O[C@@H](n2ccc3c(N)ncnc32)[C@](C)(O)[C@@H]1O (stereo partly shown) [Compound 42] | 5.32 | > 100 | 
